Assays:
HSPs in RPMI-8226 cells [1] = experiment: DI-MRM relative quantification of HSPs after 17-DMAG (Example 2); assay type: cell-based, human; settings: RPMI-8226, 100 nM
Experimental: Synthesis and DI MRM of Standard Peptides. Standard peptides were synthesized and characterized as described previously (Remily-Wood et al., Proteomics Clin. Appl. 5:383-96 (2011)). An automated chip-based nanoelectrospray ion source, (NanoMate100, Advion BioSciences, Ithaca, N.Y.), was mounted on a triple quadrupole mass spectrometer (TSQ Vantage, Thermo, San Jose, Calif.). […] (SEQ ID NO:17) were diluted to 1 μM in 50% aqueous ACN with 0.1% formic acid. For synthetic peptide infusion, the spray voltage was tuned between 1.5 and 1.9 kV for stable ion signal. The gas pressure was set to 0.3 psi. Data were acquired at 20 ms per transition for 2 minutes using m/z 0.002 scan widths. The quadrupole resolution values were modulated from 0.2 to 0.7.
Standard Protein DI-MRM. As described below, a dilution series of BSA digest was created in 50% aqueous acetonitrile with 0.1% formic acid spiked with five synthetic peptide standards (20 nM). In DI-MRM, the spray voltage was set to 1.6 kV, and the gas pressure was set to 0.3 psi. Peptide selection was performed using Q1=0.4; fragment ion selection was performed using Q3=0.7. Transitions (n=36) were monitored for 20 ms each with scan width set to 0.002; data were acquired for 5 minutes.
(§1) Cell Culture, Lysis, and HSP Sample Preparation for Mass Spectrometry. RPMI-8226 and 8226/LR5 cells were maintained as previously described (Bellamy et al., Cancer Res. 51:995-1002 (1991); Remily-Wood et al., Proteomics Clin. Appl. 5:383-96 (2011)). The heat shock protein 90 inhibitor, 17-desmethoxy-17-N,N-dimethylaminoethylamino-geldanamycin (17-DMAG), was dissolved in DMSO (100 μM stock). Based on prior IC50 measurements, the RPMI-8226 cells were treated with 100 nM 17-DMAG for 24 hours, and 8226/LR5 cells were treated with 50 nM 17-DMAG. Cells (n=10^6) were lysed using in aqueous 100 mM ammonium bicarbonate containing 8M urea for protein denaturation. Protein concentrations were measured by Bradford assays; consistent aliquots of total protein (380 ng) were injected for LC-MRM, and the same solutions were used for DI-MRM. Digestion, addition of SIS peptides, and mass spectrometry sample preparation were performed as described for standard proteins.
Calculation of Correction Factors to Account for Interference in DI MRM. […] To evaluate the ability to eliminate these contributions, correction factors were calculated based on LC-MRM data using the following set of equations (Equations 1 and 2): […]

HSPs in 8226/LR5 cells = experiment: LC-MRM relative quantification of HSPs after 17-DMAG (Example 2); assay type: cell-based, human; settings: for CDC37 Fold Change, LC-MRM / HS90A Fold Change, LC-MRM / HS90B Fold Change, LC-MRM / HSP7C Fold Change, LC-MRM / HSP7E Fold Change, LC-MRM / HSP71 Fold Change, LC-MRM / HSP74 Fold Change, LC-MRM / HSPA5 Fold Change, LC-MRM / HSP90α Fold Change, LC-MRM: 8226/LR5, 50 nM; for CDC37 Fold Change, LC-MRM / HS90A Fold Change, LC-MRM / HS90B Fold Change, LC-MRM / HSP7C Fold Change, LC-MRM / HSP7E Fold Change, LC-MRM / HSP71 Fold Change, LC-MRM / HSP74 Fold Change, LC-MRM / HSPA5 Fold Change, LC-MRM: 24 hrs after treatment vs. control; for HSP90α Fold Change, LC-MRM: 24 hrs vs. control
Experimental: as §1
(§2) […] Quantification. For HSP proteins in cell lysate, 184 transitions from 32 peptides (see Table 2) were monitored as previously described (Remily-Wood et al., Proteomics Clin. Appl. 5:383-96 (2011)). Both relative and absolute quantification were calculated from the sum of the peak areas for all detected transitions using Skyline (MacLean et al., Bioinformatics 26:966-8 (2010)) or the combination of MRMer (Martin et al., Mol. Cell Proteomics 7:2270-8 (2008)) and Post-MRMer (http://proteome.moffitt. org).

HSPs in RPMI-8226 cells [2] = experiment: as above; assay type: cell-based, human; settings: for CDC37 Fold Change, LC-MRM / HS90A Fold Change, LC-MRM / HS90B Fold Change, LC-MRM / HSP7C Fold Change, LC-MRM / HSP7E Fold Change, LC-MRM / HSP71 Fold Change, LC-MRM / HSP74 Fold Change, LC-MRM / HSPA5 Fold Change, LC-MRM / HSP90α Fold Change, LC-MRM: RPMI-8226, 100 nM; for CDC37 Fold Change, LC-MRM / HS90A Fold Change, LC-MRM / HS90B Fold Change, LC-MRM / HSP7C Fold Change, LC-MRM / HSP7E Fold Change, LC-MRM / HSP71 Fold Change, LC-MRM / HSP74 Fold Change, LC-MRM / HSPA5 Fold Change, LC-MRM: 24 hrs after treatment vs. control; for HSP90α Fold Change, LC-MRM: 24 hrs vs. control
Experimental: as §1, §2

[3] = system: vemurafenib resistant melanoma cell lines; experiment: Apoptosis, Annexin-V staining and flow cytometry; assay type: cell-based; settings: 72 or 144 hours
Experimental: Flow cytometry. […] In some studies, RPMI7951 cells were treated with 300 nM XL888 in the presence or absence of 3 μM vemurafenib and harvested after 24, 48 and 72 hours.

[4] = system: chymotrypsin like proteasome activity in M229R and 1205LuR cells; experiment: Proteasome-Glo Chymotrypsin-Like Cell Based Assay; settings: 300 nM, 48 hours
Experimental: Measurement of proteasome activity. M229R and 1205LuR cells were harvested and plated at 7,500 cells per well in a white-walled 96 well plate. […] Proteasome activity was assessed using the Proteasome-Glo Chymotrypsin-Like Cell Based Assay (Promega; Madison, Wis.) and was measured in relative luminescence units (RLU).

[5] = 24 hrs vs. control, all LC-MRM transitions, interference-corrected
[6] = 24 hrs vs. control, noise corrected, only transitions below 40% interference
[7] = y3-y5 (DI-MRM Interference-Corrected)
[8] = y3-y6 (DI-MRM Interference-Corrected)

## CO[C@H]1/C=C\C=C(/C)C(=O)NC2=CC(=O)C(NCCN(C)C)=C(C[C@@H](C)C[C@H](OC)[C@H](O)[C@@H](C)/C=C(\C)[C@@H]1OC(N)=O)C2=O [17-DMAG, 17-Dimethylaminoethylamino-17-demethoxygeldanamycin]
HSPs in RPMI-8226 cells [1]; 24 hrs after treatment vs. control, ALLFVPR y3-y6 (All LC-MRM Transitions)
  HSP90α Fold Change, DI-MRM: 1.86
HSPs in RPMI-8226 cells [1]; [5]
  CDC37 Fold Change, DI-MRM: 1.08
  HS90A Fold Change, DI-MRM: 1.86
  HS90B Fold Change, DI-MRM: 1.46
  HSP7C Fold Change, DI-MRM: 1.52
  HSP7E Fold Change, DI-MRM: 0.87
  HSP71 Fold Change, DI-MRM: 6.10
  HSP74 Fold Change, DI-MRM: 1.22
  HSPA5 Fold Change, DI-MRM: 3.43
HSPs in RPMI-8226 cells [1]; [6]
  CDC37 Fold Change, DI-MRM: 1.20
  HS90A Fold Change, DI-MRM: 1.85
  HS90B Fold Change, DI-MRM: 1.46
  HSP7C Fold Change, DI-MRM: 1.84
  HSP7E Fold Change, DI-MRM: 0.81
  HSP71 Fold Change, DI-MRM: 6.10
  HSP74 Fold Change, DI-MRM: 1.37
  HSPA5 Fold Change, DI-MRM: 2.53
HSPs in RPMI-8226 cells [1]; 24 hrs vs. control, y3 (Least Interference)
  HSP90α Fold Change, DI-MRM: 2.96
HSPs in RPMI-8226 cells [1]; 24 hrs vs. control, y3-y5 (DI-MRM Interference-Corrected)
  HSP90α Fold Change, DI-MRM: 1.85
HSPs in RPMI-8226 cells [1]; 24 hrs vs. control, y3-y5 (Selected Transitions)
  HSP90α Fold Change, DI-MRM: 1.85
HSPs in RPMI-8226 cells [1]; 24 hrs vs. control, y3-y6 (DI-MRM Interference-Corrected)
  HSP90α Fold Change, DI-MRM: 1.87
HSPs in 8226/LR5 cells; Table 6
  CDC37 Fold Change, LC-MRM: 1.08
  HS90A Fold Change, LC-MRM: 1.23
  HS90B Fold Change, LC-MRM: 1.28
  HSP7C Fold Change, LC-MRM: 1.56
  HSP7E Fold Change, LC-MRM: 0.99
  HSP71 Fold Change, LC-MRM: 3.54
  HSP74 Fold Change, LC-MRM: 1.34
  HSPA5 Fold Change, LC-MRM: 1.53
HSPs in 8226/LR5 cells; Table 7
  CDC37 Fold Change, LC-MRM: 1.08
  HS90A Fold Change, LC-MRM: 1.23
  HS90B Fold Change, LC-MRM: 1.28
  HSP7C Fold Change, LC-MRM: 1.56
  HSP7E Fold Change, LC-MRM: 0.99
  HSP71 Fold Change, LC-MRM: 3.54
  HSP74 Fold Change, LC-MRM: 1.34
  HSPA5 Fold Change, LC-MRM: 1.53
HSPs in 8226/LR5 cells; y3 (Least Interference)
  HSP90α Fold Change, LC-MRM: 1.26
HSPs in 8226/LR5 cells; [7]
  HSP90α Fold Change, LC-MRM: 1.23
HSPs in 8226/LR5 cells; y3-y5 (Selected Transitions)
  HSP90α Fold Change, LC-MRM: 1.23
HSPs in 8226/LR5 cells; [8]
  HSP90α Fold Change, LC-MRM: 1.23
HSPs in 8226/LR5 cells; 8226/LR5, 24 hours after treatment, same for y3-y6, y3-y5 or just y3
  HSP90α expression increase, LC-MRM: ~1.2 fold
HSPs in RPMI-8226 cells [2]; Table 6
  CDC37 Fold Change, LC-MRM: 1.33
  HS90A Fold Change, LC-MRM: 2.21
  HS90B Fold Change, LC-MRM: 1.53
  HSP7C Fold Change, LC-MRM: 2.28
  HSP7E Fold Change, LC-MRM: 1.23
  HSP71 Fold Change, LC-MRM: 4.67
  HSP74 Fold Change, LC-MRM: 1.45
  HSPA5 Fold Change, LC-MRM: 2.66
HSPs in RPMI-8226 cells [2]; Table 7
  CDC37 Fold Change, LC-MRM: 1.33
  HS90A Fold Change, LC-MRM: 2.21
  HS90B Fold Change, LC-MRM: 1.53
  HSP7C Fold Change, LC-MRM: 2.28
  HSP7E Fold Change, LC-MRM: 1.23
  HSP71 Fold Change, LC-MRM: 4.67
  HSP74 Fold Change, LC-MRM: 1.45
  HSPA5 Fold Change, LC-MRM: 2.66
HSPs in RPMI-8226 cells [2]; y3 (Least Interference)
  HSP90α Fold Change, LC-MRM: 2.19
HSPs in RPMI-8226 cells [2]; [7]
  HSP90α Fold Change, LC-MRM: 2.21
HSPs in RPMI-8226 cells [2]; y3-y5 (Selected Transitions)
  HSP90α Fold Change, LC-MRM: 2.21
HSPs in RPMI-8226 cells [2]; [8]
  HSP90α Fold Change, LC-MRM: 2.21
HSPs in RPMI-8226 cells [2]; RPMI-8226, 24 hours after treatment, same for y3-y6, y3-y5 or just y3
  HSP90α expression increase, LC-MRM: approximately 2.2 fold

## CC[C@@H](C)Nc1cc(C(=O)N[C@@H]2C[C@H]3CC[C@@H](C2)N3c2ccc(C(=O)C3CC3)cn2)c(C)cc1C(N)=O [XL888, 5-((R)-sec-butylamino)-N1-((1R,3s,5S)-8-(5-(cyclopropanecarbonyl)pyridin-2-yl)-8-azabicyclo[3.2.1]octan-3-yl)-2-methylterephthalamide]
[3]; 300 nM, every cell line tested
  apoptosis: > 66%
[3]; resistance through COT, PDGFRβ overexpression and two unknown mechanisms
  apoptosis versus MEK, PI3K and MEK+PI3K inhibitors: significantly higher levels of apoptosis than each of the other drug combinations
[4]
  inhibiting chymotrypsin like proteasome activity: less effective than the MEK+PI3K inhibitor combination
